Laboratory results taken from patent US20240294465A1, “NOVEL ANTI-FIBROTIC DRUGS” (HELMHOLTZ ZENTRUM MUNCHEN - DEUTSCHES FORSCHUNGSZENTRUM FUR …, priority 2021, published 2024).

Key:
PAI-1/SERPINE1 = test: Human precision cut lung slices (PCLS) with fibrotic cocktail: immunoblot of secreted PAI-1; type: cell-based; details: living human PCLS
Description: (§1) PCLS were prepared as described before (31, 32). Shortly, PCLS were prepared from tumor-free peri-tumor tissue. The lung tissue was inflated with 3% agarose solution and solidified at 4° C. Tissue blocks were cut in μm thick PCLS using a vibration microtome Hyrax V50 (Zeiss). PCLS were cultured in DMEM F-12 medium and treated with a profibrotic cocktail, as described before (31), or vehicle, as well as with small molecules or vehicles for 7 days. After culturing and treatments, supernatants were harvested. PCLS were […] washed in PBS and protein was extracted as previously described (33). Briefly, PCLS were pooled in an Eppendorf tube and lysed in 500 μl ice-cold RIPA buffer (50 mM Tris-CI pH 7.4, 150 mM NaCl, 1% NP40, 0.25% Na-deoxycholate) containing 1× Roche complete mini protease inhibitor cocktail (Roche, Cat. #11697498001). After an incubation of 2 hours rotating at 4° C., the lung slices were removed from the lysates and the protein content was measured.
(§2) Cells were scraped off the plastic dish directly into 200 μl ice-cold RIPA buffer containing 1× Roche complete mini protease inhibitor cocktail. […] CXCL/IL-8 concentrations were determined using Human IL-8/CXCL8 DuoSet ELISA (DY208-05) according to the manufacturer's protocol.

phLFs = test: Cytotoxicity assays (MTT, live/dead calcein, caspase 3/7); type: cell-based; details: confluent phLFs+TGFβ1
Source text: Viability/Cytotoxicity Assay Kit for Animal Live and Dead Cells was obtained from Biotium, Cat. No. 3002). CellEvent™ Caspase 3/7 Green Detection Reagent was acquired from Invitrogen, Cat. No. C10423. For MTT-assays, Thiazolyl Blue Tetrazolium was bought from SigmaAldrich (M5655-1G). All these kits and assays were used according to the manufacturer's instructions.

CXCL8/IL-8 = test: Human precision cut lung slices (PCLS) with fibrotic cocktail: IL-8 ELISA; type: cell-based; details: living human PCLS
Description: as §1, §2

[1] = tested on: profibrotic gene signatures in phLFs+TGFβ1; test: Microarray transcriptomics and UMAP regulation pattern clustering in phLFs; type: cell-based, human; details: phLFs+TGFβ1+example 84
Description: Total RNA was isolated PEQGold Total RNA Kit (PeqLab) according to the manufacturer's instructions including gDNA elimination. The Agilent 2100 Bioanalyzer was used to assess RNA quality and RNA with RIN>7 was used for microarray analysis. Total RNA (150 ng) was amplified using the WT PLUS Reagent Kit (Thermo Fisher Scientific Inc., Waltham, USA). Amplified cDNA was hybridized on Human ClariomS arrays (Thermo Fisher Scientific). Staining and scanning (GeneChip Scanner 3000 7G) was done according to manufacturer's instructions. Transcriptome Analysis Console (TAC; version 4.0.0.25; Thermo Fisher Scientific) was used for quality control and to obtain annotated normalized SST-RMA gene-level data. Statistical analyses were performed by utilizing the statistical programming environment R (R Development Core Team Ref1). Genewise testing for differential expression was done employing the paired limma t-test and Benjamini-Hochberg multiple testing correction (FDR<10%). To reduce background, gene sets were filtered using DABG p-values<0.05 in at least one sample per pair and in at least two of three pairs per analysis. […] Then, clusters of genes were extracted. Gene/protein interactions were visualized using the String Database (www.stringdb.org).

SMILES: CCCCOc1ccccc1NC(=O)/C=C/c1ccc(OC)c(OC)c1 [Example 84, (E)-N-(2-butoxyphenyl)-3-(3,4-dimethoxyphenyl)acrylamide]
- secreted PAI-1/SERPINE1 (PAI-1/SERPINE1): diminution of secreted pro-fibrotic PAI-1/SERPINE1
- viability (calcein staining) (phLFs): proving viability
- CXCL8/IL-8 (ELISA) (CXCL8/IL-8): diminution of pro-fibrotic CXCL8/IL-8
- gene-set enrichment analysis (collagen formation, extracellular matrix organization, smooth-muscle contraction) [1]: negative enrichment for profibrotic gene signatures
